Like-named read-outs stand apart in the source and are kept apart here.
Tests used:
[1] = Phase 1 pharmacokinetic study, single oral 25 mg dose of d6-tetrabenazine or tetrabenazine (immediate release, powder in capsule), two-period crossover; type: in vivo, human; settings: for AUClast / Cmax / Tmax / AUCinf / t1/2: plasma analyte, single oral 25 mg d6-tetrabenazine or tetrabenazine; for AUClast / Cmax / Tmax / AUCinf (AUClast presented for parent drug as AUCinf not calculable) / AUCinf / t1/2: fasted, mean; for AUCinf (AUClast presented for parent drug as AUCinf not calculable): parent drug in plasma, single oral 25 mg; for Ratio of LS Means, AUCinf / Ratio of LS Means, AUClast / Ratio of LS Means, Cmax / Ratio of LS Means, t1/2: d6-tetrabenazine 25 mg (test) to tetrabenazine 25 mg (reference), ANOVA
Experimental: A Phase 1 pharmacokinetic study was conducted in 24 healthy extensive and intermediate CYP2D6 metabolizer volunteers receiving oral 25 mg doses of d6-tetrabenazine or tetrabenazine to compare the relative bioavailability and pharmacokinetics of single oral doses of d6-tetrabenazine and its metabolites d6-α-HTBZ and d6-β-HTBZ with their non-deuterated equivalents (tetrabenazine, α-HTBZ and β-HTBZ) as well as the corresponding O-desmethyl metabolites of α-HTBZ and β-HTBZ. Subjects received a single oral dose of 25 mg of d6-tetrabenazine or tetrabenazine after an overnight fast, as a powder in capsule, in Period 1 and following washout of at least 7 days. Patients were crossed over to receive the other treatment in Period 2. In each period, plasma samples were collected over 72 hours post-dose.
Pharmacokinetic results are shown below in Table 37 and FIG. 3, results are presented as Mean (% CV) for Cmax, AUC and t1/2 (AUClast presented for parent drug as AUCinf not calculable), and as Mean (range) for Tmax. The increased exposure was principally attributable to increases in half-life and was associated with proportional reductions in O-desmethyl metabolites of HTBZ.
The effect of deuteration on key pharmacokinetic parameters was evaluated by comparing d6-tetrabenazine (test) to tetrabenazine (reference) using an analysis of variance (ANOVA) model for a two-period crossover including factors Sequence, Treatment, Period and Subject. Pharmacokinetic parameters were log-transformed before analysis.

[2] = type: in vitro ADME
Excerpt: d6-Tetrabenazine has been designed with the intent to improve the pharmacokinetic profile of active metabolites α-HTBZ and β-HTBZ. The CYP mediated cleavage of the carbon-deuterium bonds within the trideuterated methyl groups (CD3) of d6-tetrabenazine is slower than the cleavage of the carbon-hydrogen bonds in the methyl groups (CH3) of tetrabenazine, an effect that selectively attenuated O-demethylation of deuterated α-HTBZ and β-HTBZ (d6-α-HTBZ and d6-β-HTBZ) in in vitro studies.
The spectrum of metabolites produced by d6-tetrabenazine is expected to be similar to that in patients with reduced CYP2D6 metabolism who receive tetrabenazine. This is based on in vitro metabolism studies and a drug interaction study of tetrabenazine and paroxetine. In the drug interaction study, co-administration of tetrabenazine and paroxetine increased systemic exposure to the α-HTBZ and β-HTBZ metabolites by 3- to 9-fold, respectively, compared to tetrabenazine alone (Xenazine® U.S. prescribing information). […] Administration of d6-tetrabenazine to healthy volunteers led to an approximate 2-fold increase in systemic exposure to α-HTBZ and β-HTBZ and proportional reductions in O-desmethyl metabolites compared to tetrabenazine. […]

[3] = human plasma; cited from earlier work
[4] = co-administration of tetrabenazine and paroxetine, compared to tetrabenazine alone; cited from earlier work

Molecule | AUClast [1] [ng·h/mL] | Cmax [1] [ng/mL] | Tmax [1] [h] | AUCinf [1] [ng·h/mL] | t1/2 [1] [h] | further results
COc1cc2c(cc1O)C1CC(O)C(CC(C)C)CN1CC2 (stereo not drawn) [10-ODM-β-HTBZ] | 3.0 | 1.63 | 1.25 |  |  | 
[2H]C([2H])([2H])Oc1cc2c(cc1OC([2H])([2H])[2H])[C@@H]1CC(=O)[C@@H](CC(C)C)CN1CC2 (racemic) [d6-Tetrabenazine, (3R,11bR)-1,3,4,6,7,11b-hexahydro-9,10-di(methoxy-d3)-3-(2-methylpropyl)-2H-benzo[a]quinolizin-2-one and (3S,11bS)-1,3,4,6,7,11b-hexahydro-9,10-di(methoxy-d3)-3-(2-methylpropyl)-2H-benzo[a]quinolizin-2-one] |  |  |  |  |  | systemic exposure to total (α+β)-HTBZ ([1]; compared to exposure following tetrabenazine administration): more than doubling; Cmax ([1]; human, read-out: Cmax): 0.327 ng/mL; AUCinf (AUClast presented for parent drug as AUCinf not calculable) [1]: 0.30 ng·h/mL
[2H]C([2H])([2H])Oc1cc2c(cc1O)CCN1C[C@@H](CC(C)C)[C@@H](O)C[C@H]21 [d3-9-O-desmethy1-β-HTBZ] | 92.4 | 6.29 | 1.75 | 114 | 16.9 | 
COc1cc2c(cc1O)CCN1C[C@@H](CC(C)C)[C@@H](O)C[C@H]21 [9-O-desmethyl-β-HTBZ] | 205 | 15.7 | 1.75 | 220 | 16.2 | 
alpha-dihydrotetrabenazine [α-HTBZ] |  | 41.2 | 1.00 | 189 | 5.47 | Ratio of LS Means, AUCinf [1]: 213.6%; Ratio of LS Means, AUClast [1]: 214.8%; Ratio of LS Means, Cmax [1]: 113.7%; Ratio of LS Means, t1/2 [1]: 174.7%; half-lives [3]: 7 h; increase in systemic exposure [4]: 3 fold
COc1cc2c(cc1O)CCN1C[C@@H](CC(C)C)[C@H](O)C[C@H]21 [9-O-desmethyl-α-HTBZ] | 42.5 | 5.05 | 2.00 | 49.9 | 6.95 | 
[2H]C([2H])([2H])Oc1cc2c(cc1O)C1CC(O)C(CC(C)C)CN1CC2 (stereo not drawn) [d3-10-ODM-β-HTBZ] | 0.7 | 0.59 | 1.50 |  |  | 
COc1cc2c(cc1OC)[C@@H]1CC(=O)[C@@H](CC(C)C)CN1CC2 (racemic) [Tetrabenazine, (3R,11bR)-1,3,4,6,7,11b-Hexahydro-9,10-dimethoxy-3-(2-methylpropyl)-2H-benzo[a]quinolizin-2-one, and (3S,11bS)-1,3,4,6,7,11b-hexahydro-9,10-dimethoxy-3-(2-methylpropyl)-2H-benzo[a]quinolizin-2-one, reference compound] |  |  |  |  |  | Cmax ([1]; human, read-out: Cmax): 0.314 ng/mL; AUCinf (AUClast presented for parent drug as AUCinf not calculable) [1]: 0.26 ng·h/mL

Further lines, with some results ahead:

AUClast [1] [ng·h/mL] | Cmax [1] [ng/mL] | Tmax [1] [h] | AUCinf [1] [ng·h/mL] | t1/2 [1] [h] | Molecule | further results
21.0 | 2.15 | 3.02 |  |  | [2H]C([2H])([2H])Oc1cc2c(cc1O)CCN1C[C@@H](CC(C)C)[C@H](O)C[C@H]21 [d3-9-O-desmethyl-α-HTBZ] | 
 | 29.6 | 1.50 | 171 | 5.00 | [2H]C([2H])([2H])Oc1cc2c(cc1OC([2H])([2H])[2H])[C@@H]1C[C@@H](O)[C@@H](CC(C)C)CN1CC2 [d6-β-HTBZ, deuterated beta-dihydrotetrabenazine] | less of the O-desmethyl metabolites produced [2]: 69-87%
 | 20.5 | 1.00 | 74.0 | 2.95 | COc1cc2c(cc1OC)[C@H]1C[C@H](O)[C@H](CC(C)C)CN1CC2 [β-HTBZ, beta-dihydrotetrabenazine] | Ratio of LS Means, AUCinf [1]: 235.8%; Ratio of LS Means, AUClast [1]: 240.1%; Ratio of LS Means, Cmax [1]: 145.8%; Ratio of LS Means, t1/2 [1]: 153.0%; half-lives [3]: 5 h; increase in systemic exposure [4]: 9 fold
 | 46.1 | 1.5 | 373 | 8.97 | [2H]C([2H])([2H])Oc1cc2c(cc1OC([2H])([2H])[2H])[C@H]1C[C@@H](O)[C@H](CC(C)C)CN1CC2 [d6-α-HTBZ, deuterated alpha-dihydrotetrabenazine] | less of the O-desmethyl metabolites produced [2]: 69-87%
